Assay results from patent publication US10654837B2, “Sulphamoylaryl derivatives and use thereof as medicaments for the treatment of liver fibrosis” (Janssen Pharmaceutica NV, priority 2017, dated 2020).

What follows are compounds tested against T1, 5HTR2B (Homo sapiens, UniProt P41595) (assay: 5HTR2B antagonist activity, calcium mobilization assay in human Maverick/293 cells (serotonin as agonist)). Settings: intracellular calcium, emission 525 nm, read-out: Ca assay IC50.
T1 construct: host or cells: human Maverick/293 cells
Format: cell-based
Summary of the method: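 Calcium mobilization read over 80 s at ex 485/em 525 nm after serotonin addition. Before that, 2 h serum-free starvation, 50 min dye loading at 37 °C, and 15-30 min antagonist exposure. IC50 from sigmoidal fit of peak % inhibition.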

T1 sequence (P41595 whole entry): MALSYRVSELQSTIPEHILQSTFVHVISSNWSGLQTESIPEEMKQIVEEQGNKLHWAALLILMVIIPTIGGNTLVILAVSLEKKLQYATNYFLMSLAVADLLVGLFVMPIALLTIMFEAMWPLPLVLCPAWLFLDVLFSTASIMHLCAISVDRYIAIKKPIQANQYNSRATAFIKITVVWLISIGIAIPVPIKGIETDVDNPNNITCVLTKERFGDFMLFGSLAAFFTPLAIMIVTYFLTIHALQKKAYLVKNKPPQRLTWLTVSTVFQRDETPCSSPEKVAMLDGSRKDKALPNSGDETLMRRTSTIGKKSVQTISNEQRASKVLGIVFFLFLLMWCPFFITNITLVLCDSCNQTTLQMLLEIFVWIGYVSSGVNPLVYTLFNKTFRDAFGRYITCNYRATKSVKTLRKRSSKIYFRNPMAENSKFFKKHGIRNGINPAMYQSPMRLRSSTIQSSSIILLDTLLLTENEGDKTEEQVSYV

Row | Compound | IC50
1 | COc1ccc(S(=O)(=O)N[C@H]2CCNC2)cc1C(=O)Nc1ccc(F)c(C(F)F)c1 [Compound 183, (S)—N-(3-(difluoromethyl)-4-fluorophenyl)-2-methoxy-5-(N-(pyrrolidin-3-yl)sulfamoyl)benzamide] | 0.5 nM
2 | COc1ccccc1NC(=O)c1cc(S(=O)(=O)N[C@H]2CCNC2)ccc1OC [Compound 184, (S)-2-methoxy-N-(2-methoxyphenyl)-5-(N-(pyrrolidin-3-yl)sulfamoyl) benzamide] | 0.3 nM
3 | COc1ccc(S(=O)(=O)N[C@H]2CCNC2)cc1C(=O)Nc1ccc(Cl)cc1F [Compound 185, (S)—N-(4-chloro-2-fluorophenyl)-2-methoxy-5-(N-(pyrrolidin-3-yl)sulfamoyl) benzamide] | 0.8 nM
4 | COc1ccc(S(=O)(=O)N[C@H]2CCNC2)cc1C(=O)Nc1cc(F)ccc1Cl [Compound 186, (S)—N-(2-chloro-5-fluorophenyl)-2-methoxy-5-(N-(pyrrolidin-3-yl)sulfamoyl) benzamide] | 0.3 nM
5 | COc1ccc(S(=O)(=O)N[C@H]2CCNC2)cc1C(=O)Nc1ccc(F)c(C)c1 [Compound 187, (S)—N-(4-fluoro-3-methylphenyl)-2-methoxy-5-(N-(pyrrolidin-3-yl)sulfamoyl) benzamide] | 0.7 nM
6 | COc1ccc(S(=O)(=O)N[C@@H]2CCNC2)cc1C(=O)Nc1ccc(F)cc1F [Compound 188, (R)—N-(2,4-difluorophenyl)-2-methoxy-5-(N-(pyrrolidin-3-yl)sulfamoyl) benzamide] | 1.6 nM
7 | COc1ccc(S(=O)(=O)N(C)[C@H]2CCOC2)cc1C(=O)Nc1ccc(F)c(C)n1 [Compound 189, (S)—N-(5-fluoro-6-methylpyridin-2-yl)-2-methoxy-5-(N-methyl-N-(tetrahydrofuran-3-yl)sulfamoyl) benzamide] | 14 nM
8 | [2H]C([2H])([2H])Oc1ccc(S(=O)(=O)N[C@H]2CCOC2)cc1C(=O)Nc1ccc(F)cc1 [Compound 190, (S)—N-(4-fluorophenyl)-2-(methoxy-d3)-5-(N-(tetrahydrofuran-3-yl)sulfamoyl) benzamide] | 0.9 nM
9 | [2H]C([2H])([2H])Oc1ccc(S(=O)(=O)N[C@H]2CCOC2)cc1C(=O)Nc1ccc(F)c(C)c1 [Compound 191, (S)—N-(4-fluoro-3-methylphenyl)-2-(methoxy-d3)-5-(N-(tetrahydrofuran-3-yl)sulfamoyl)benzamide] | 1.1 nM
10 | [2H]C([2H])([2H])Oc1ccc(S(=O)(=O)N[C@H]2CCOC2)cc1C(=O)Nc1ccc(F)c(C(F)F)c1 [Compound 192, (S)—N-(3-(Difluoromethyl)-4-fluorophenyl)-2-(methoxy-d3)-5-(N-(tetrahydrofuran-3-yl)sulfamoyl)benzamide] | 0.4 nM
11 | [2H]C([2H])([2H])Oc1ccc(S(=O)(=O)N[C@H]2CCOC2)cc1C(=O)Nc1ccc(F)cn1 [Compound 193, (S)—N-(5-fluoropyridin-2-yl)-2-(methoxy-d3)-5-(N-(tetrahydrofuran-3-yl)sulfamoyl)benzamide] | 3.2 nM
12 | [2H]C([2H])([2H])Oc1ccc(S(=O)(=O)N[C@H]2CCOC2)cc1C(=O)Nc1ccc(F)c(C)n1 [Compound 194, (S)—N-(5-fluoro-6-methylpyridin-2-yl)-2-(methoxy-d3)-5-(N-(tetrahydrofuran-3-yl)sulfamoyl)benzamide] | 1.1 nM
13 | [2H]C([2H])([2H])Oc1ccc(S(=O)(=O)N[C@H]2CCOC2)cc1C(=O)Nc1ccc(F)c(C2CC2)n1 [Compound 195, (S)—N-(6-cyclopropyl-5-fluoropyridin-2-yl)-2-(methoxy-d3)-5-(N-(tetrahydrofuran-3-yl)sulfamoyl)benzamide] | 0.9 nM
14 | [2H]C([2H])([2H])Oc1ccc(S(=O)(=O)N[C@H]2CCOC2)cc1C(=O)Nc1ncc(F)cc1F [Compound 196, (S)—N-(3,5-difluoropyridin-2-yl)-2-(methoxy-d3)-5-(N-(tetrahydrofuran-3-yl)sulfamoyl)benzamide] | 19 nM
15 | Cc1nc(NC(=O)c2cc(S(=O)(=O)N[C@H]3CCOC3)ccc2OC(C)C)ccc1F [Compound 197, (S)—N-(5-fluoro-6-methylpyridin-2-yl)-2-isopropoxy-5-(N-(tetrahydrofuran-3-yl)sulfamoyl)benzamide] | 5.3 nM
16 | CCOc1ccc(S(=O)(=O)N[C@H]2CCOC2)cc1C(=O)Nc1ccc(F)c(C)n1 [Compound 198, (S)-2-ethoxy-N-(5-fluoro-6-methylpyridin-2-yl)-5-(N-(tetrahydrofuran-3-yl)sulfamoyl)benzamide] | 0.7 nM
17 | CCCOc1ccc(S(=O)(=O)N[C@H]2CCOC2)cc1C(=O)Nc1ccc(F)c(C)n1 [Compound 199, (S)—N-(5-fluoro-6-methylpyridin-2-yl)-2-propoxy-5-(N-(tetrahydrofuran-3-yl)sulfamoyl) benzamide] | 3.7 nM
18 | COc1c(F)cc(S(=O)(=O)N[C@H]2CCOC2)cc1C(=O)Nc1ccc(F)c(C)c1 [Compound 200, (S)-3-fluoro-N-(4-fluoro-3-methylphenyl)-2-methoxy-5-(N-(tetrahydrofuran-3-yl)sulfamoyl)benzamide] | 3.3 nM
19 | COc1cc(F)c(S(=O)(=O)N[C@H]2CCOC2)cc1C(=O)Nc1ccc(F)c(C)c1 [Compound 201, (S)-4-fluoro-N-(4-fluoro-3-methylphenyl)-2-methoxy-5-(N-(tetrahydrofuran-3-yl)sulfamoyl)benzamide] | 8.6 nM
20 | COc1ccc(S(=O)(=O)N[C@H]2CCOC2)cc1NC(=O)c1ccc(F)c(C)c1 [Compound 203, (S)-4-Fluoro-N-(2-methoxy-5-(N-(tetrahydrofuran-3-yl)sulfamoyl)phenyl)-3-methylbenzamide] | 13 nM
